Converted amounts (≈) assume the structure as drawn.
What was measured:
[1] = tested on: Mus musculus; test: Antinociceptive activity in CD1 mouse PSNL model assessed as reduction in mechanical allodynia by measuring decrease in the pressure required to elicit withdrawal of the ipsilateral paw after von Frey filament stimulation at 5 mg/kg, ip BID for 11 days from day 13 to day 22; type: functional; details: 264 h, time 11 day
[2] = target: CYP3A4 (Homo sapiens, UniProt P08684); test: Inhibition of human CYP3A4 at 1 uM relative to control; type: ADME
Chain of CYP3A4 (P08684 whole entry): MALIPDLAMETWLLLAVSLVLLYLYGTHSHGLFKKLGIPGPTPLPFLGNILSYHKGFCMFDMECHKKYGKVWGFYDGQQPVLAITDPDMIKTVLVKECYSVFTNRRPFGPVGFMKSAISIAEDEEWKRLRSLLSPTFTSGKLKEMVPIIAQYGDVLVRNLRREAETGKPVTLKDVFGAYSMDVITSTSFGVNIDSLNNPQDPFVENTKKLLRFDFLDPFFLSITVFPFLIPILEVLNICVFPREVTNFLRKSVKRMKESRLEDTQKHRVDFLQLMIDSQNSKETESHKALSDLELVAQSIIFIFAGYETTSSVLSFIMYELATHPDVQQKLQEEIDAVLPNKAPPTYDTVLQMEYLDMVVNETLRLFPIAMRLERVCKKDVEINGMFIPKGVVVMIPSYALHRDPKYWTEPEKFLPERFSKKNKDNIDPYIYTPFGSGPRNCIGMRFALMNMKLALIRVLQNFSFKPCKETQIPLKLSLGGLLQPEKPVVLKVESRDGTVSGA

[3] = target: T1, CYP1A2 (Homo sapiens, UniProt P05177); test: Inhibition of human CYP1A2 at 1 uM relative to control; type: ADME
T1 sequence (P05177 whole entry): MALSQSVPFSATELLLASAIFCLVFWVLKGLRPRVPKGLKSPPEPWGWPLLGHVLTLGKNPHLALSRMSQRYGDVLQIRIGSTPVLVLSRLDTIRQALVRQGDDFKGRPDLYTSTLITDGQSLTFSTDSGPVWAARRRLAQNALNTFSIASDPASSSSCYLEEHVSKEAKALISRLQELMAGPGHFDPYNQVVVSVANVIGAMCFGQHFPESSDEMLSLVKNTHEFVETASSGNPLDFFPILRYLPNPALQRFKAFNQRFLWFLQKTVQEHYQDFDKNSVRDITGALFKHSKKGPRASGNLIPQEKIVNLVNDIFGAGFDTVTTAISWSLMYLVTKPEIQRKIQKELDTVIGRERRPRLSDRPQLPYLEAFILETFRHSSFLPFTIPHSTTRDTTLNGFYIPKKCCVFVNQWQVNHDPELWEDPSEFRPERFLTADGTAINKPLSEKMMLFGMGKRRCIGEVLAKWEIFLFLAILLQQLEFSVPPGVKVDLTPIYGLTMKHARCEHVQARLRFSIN

[4] = target: T2, Alpha-1A adrenergic receptor (Homo sapiens) (UniProt P35348); test: Binding affinity to human alpha1A adrenoreceptor expressed in membranes assessed as inhibition of [3H]-prazosin binding incubated for 90 mins by scintillation counting method; set-up: concentration or dose not given beside the values; details: Cell membrane
T2 sequence (whole entry): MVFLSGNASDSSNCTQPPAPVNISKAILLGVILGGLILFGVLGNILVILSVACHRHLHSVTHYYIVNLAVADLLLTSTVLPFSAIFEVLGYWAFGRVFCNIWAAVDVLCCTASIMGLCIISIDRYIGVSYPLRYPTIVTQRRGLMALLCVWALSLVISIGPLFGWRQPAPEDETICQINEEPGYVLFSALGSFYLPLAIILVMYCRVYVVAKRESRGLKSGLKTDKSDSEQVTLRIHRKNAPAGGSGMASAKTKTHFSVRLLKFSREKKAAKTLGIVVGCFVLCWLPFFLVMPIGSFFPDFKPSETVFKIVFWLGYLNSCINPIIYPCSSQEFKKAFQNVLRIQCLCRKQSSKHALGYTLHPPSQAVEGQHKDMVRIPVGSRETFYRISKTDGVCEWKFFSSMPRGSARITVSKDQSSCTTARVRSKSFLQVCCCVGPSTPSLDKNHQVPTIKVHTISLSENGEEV

[5] = Permeability in human Caco-2 cells; type: ADME, cell-based
[6] = tested on: HepG2; test: Toxicity in human HepG2 cells assessed as reduction in cell viability up to 100 uM by neutral red uptake assay; type: cell-based
[7] = Distribution coefficient, logD of compound at pH 7.4; type: physicochemical; details: octanol/water
[8] = target: hERG (KCNH2) (Homo sapiens, UniProt Q12809); test: Inhibition of human ERG expressed in CHO cells at 10 uM at -80 mV holding potential by whole cell patch clamp assay; type: cell-based; details: CHO cells expressing human ERG
Chain of hERG (KCNH2) (Q12809 whole entry): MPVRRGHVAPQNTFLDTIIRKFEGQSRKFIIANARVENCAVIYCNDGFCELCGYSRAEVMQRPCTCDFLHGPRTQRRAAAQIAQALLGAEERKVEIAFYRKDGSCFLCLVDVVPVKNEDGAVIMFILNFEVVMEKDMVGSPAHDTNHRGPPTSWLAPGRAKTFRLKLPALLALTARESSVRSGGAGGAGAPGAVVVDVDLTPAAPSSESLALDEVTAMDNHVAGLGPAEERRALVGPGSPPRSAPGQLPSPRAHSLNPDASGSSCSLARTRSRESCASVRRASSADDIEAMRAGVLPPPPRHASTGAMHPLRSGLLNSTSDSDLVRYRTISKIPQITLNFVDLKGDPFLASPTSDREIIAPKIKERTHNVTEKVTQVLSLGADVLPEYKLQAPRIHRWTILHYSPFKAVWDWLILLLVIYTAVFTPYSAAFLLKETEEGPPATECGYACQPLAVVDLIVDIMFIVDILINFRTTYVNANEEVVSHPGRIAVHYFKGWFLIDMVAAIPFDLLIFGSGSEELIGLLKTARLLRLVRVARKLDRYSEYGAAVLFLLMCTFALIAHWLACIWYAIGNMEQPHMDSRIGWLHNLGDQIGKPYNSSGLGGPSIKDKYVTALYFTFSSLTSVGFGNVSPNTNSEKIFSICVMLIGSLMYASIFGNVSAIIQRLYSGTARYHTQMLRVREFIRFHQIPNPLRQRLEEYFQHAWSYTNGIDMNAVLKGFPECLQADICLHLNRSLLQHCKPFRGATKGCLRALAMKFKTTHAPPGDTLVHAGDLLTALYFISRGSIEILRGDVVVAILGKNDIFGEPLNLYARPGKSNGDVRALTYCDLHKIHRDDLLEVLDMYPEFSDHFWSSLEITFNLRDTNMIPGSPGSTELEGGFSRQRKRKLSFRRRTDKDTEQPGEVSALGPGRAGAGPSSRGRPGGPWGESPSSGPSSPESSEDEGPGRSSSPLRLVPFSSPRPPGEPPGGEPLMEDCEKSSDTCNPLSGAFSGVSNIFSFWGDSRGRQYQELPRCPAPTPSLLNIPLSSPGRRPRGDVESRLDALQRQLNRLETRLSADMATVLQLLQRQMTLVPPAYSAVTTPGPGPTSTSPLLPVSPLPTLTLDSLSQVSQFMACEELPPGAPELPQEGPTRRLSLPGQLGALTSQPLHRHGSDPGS

[9] = tested on: Mus musculus; test: Antinociceptive activity in orally dosed CD1 mouse assessed as by paw pressure test; type: functional; details: CD1, po
[10] = target: CYP2C19 (Homo sapiens, UniProt P33261); test: Inhibition of human CYP2C19 at 1 uM relative to control; type: ADME
Chain of CYP2C19 (P33261 whole entry): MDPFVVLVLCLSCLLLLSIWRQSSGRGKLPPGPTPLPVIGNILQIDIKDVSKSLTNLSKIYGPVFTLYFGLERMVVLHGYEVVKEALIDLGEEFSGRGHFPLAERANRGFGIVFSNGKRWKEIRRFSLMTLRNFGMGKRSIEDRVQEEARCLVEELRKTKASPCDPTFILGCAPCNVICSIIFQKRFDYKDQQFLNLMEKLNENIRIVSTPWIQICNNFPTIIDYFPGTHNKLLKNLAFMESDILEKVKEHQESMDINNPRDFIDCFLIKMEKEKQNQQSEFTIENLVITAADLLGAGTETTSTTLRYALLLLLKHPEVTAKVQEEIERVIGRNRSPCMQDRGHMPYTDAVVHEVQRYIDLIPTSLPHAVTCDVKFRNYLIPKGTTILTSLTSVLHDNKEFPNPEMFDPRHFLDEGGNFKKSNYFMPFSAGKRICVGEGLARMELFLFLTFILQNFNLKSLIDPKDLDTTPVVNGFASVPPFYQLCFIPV

[11] = target: Voltage-gated inwardly rectifying potassium channel KCNH2 (Homo sapiens, UniProt Q12809)
Chain of Voltage-gated inwardly rectifying potassium channel KCNH2 (Q12809 whole entry): as the sequence (Q12809 whole entry) above
Description: Inhibition of human ERG expressed in CHO cells at -80 mV holding potential by whole cell patch clamp assay

[12] = target: CYP2D6 (Homo sapiens, UniProt P10635); test: Inhibition of human CYP2D6 at 1 uM relative to control; type: ADME
Chain of CYP2D6 (P10635 whole entry): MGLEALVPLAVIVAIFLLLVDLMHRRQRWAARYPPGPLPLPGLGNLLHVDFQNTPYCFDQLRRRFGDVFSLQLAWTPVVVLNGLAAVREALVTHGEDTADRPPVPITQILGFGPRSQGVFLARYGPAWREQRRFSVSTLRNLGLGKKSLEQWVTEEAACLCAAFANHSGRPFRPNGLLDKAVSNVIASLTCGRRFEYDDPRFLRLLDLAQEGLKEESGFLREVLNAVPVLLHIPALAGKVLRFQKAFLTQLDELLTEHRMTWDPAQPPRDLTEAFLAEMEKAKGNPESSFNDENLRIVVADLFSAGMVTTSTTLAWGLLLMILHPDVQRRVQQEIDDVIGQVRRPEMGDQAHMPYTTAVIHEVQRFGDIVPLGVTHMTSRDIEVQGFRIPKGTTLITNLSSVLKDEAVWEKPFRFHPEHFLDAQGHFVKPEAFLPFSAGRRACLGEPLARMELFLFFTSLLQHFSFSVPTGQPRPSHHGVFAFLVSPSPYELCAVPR

[13] = tested on: HepG2; test: Toxicity in human HepG2 cells assessed as reduction in cell viability up to 100 uM by MTT assay; type: cell-based
[14] = Lipophilicity, logD of compound; type: physicochemical; details: octanol/water
[15] = Thermodynamic solubility of compound at pH 2; type: physicochemical; details: buffer, read-out: Therm_solubility
[16] = Toxicity in CD1 mouse PSNL model assessed as induction of opiate withdrawal by measuring expression of some behavioral signs measured immediately after naloxone injection at 5 mg/kg, ip BID for 11 days from day 13 to day 22 and measured on day 23; type: organism-based; details: in vivo, 264 h, time 11 day
[17] = Intrinsic clearance in human liver microsomes; type: ADME, Microsome; details: read-out: CLH
[18] = Toxicity in CD1 mouse assessed as inhibition of intestinal transit by measuring percentage of distance traveled by charcoal meal at 40 mg/kg, po; type: organism-based; details: in vivo
[19] = target: CYP2C9 (Homo sapiens, UniProt P11712); test: Inhibition of human CYP2C9 at 1 uM relative to control; type: ADME
Chain of CYP2C9 (P11712 whole entry): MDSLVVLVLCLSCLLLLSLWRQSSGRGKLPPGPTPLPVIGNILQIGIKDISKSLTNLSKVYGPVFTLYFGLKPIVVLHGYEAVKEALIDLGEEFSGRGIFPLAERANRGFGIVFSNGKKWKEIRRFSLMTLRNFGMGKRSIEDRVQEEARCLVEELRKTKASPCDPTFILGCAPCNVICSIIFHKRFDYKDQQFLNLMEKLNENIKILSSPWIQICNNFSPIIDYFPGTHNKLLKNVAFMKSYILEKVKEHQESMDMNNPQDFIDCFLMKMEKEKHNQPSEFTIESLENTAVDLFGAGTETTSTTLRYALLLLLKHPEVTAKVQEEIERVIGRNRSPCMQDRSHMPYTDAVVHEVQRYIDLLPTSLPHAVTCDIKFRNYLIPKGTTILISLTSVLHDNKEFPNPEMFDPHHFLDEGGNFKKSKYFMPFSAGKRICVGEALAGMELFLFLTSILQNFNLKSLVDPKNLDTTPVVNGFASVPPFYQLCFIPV

[20] = Thermodynamic solubility of compound at pH 7.4; type: physicochemical; details: buffer, read-out: Therm_solubility
[21] = Toxicity in CD1 mouse PSNL model assessed as induction of opiate withdrawal by measuring expression of some behavioral signs measured immediately after naloxone injection at 1.25 mg/kg, ip BID for 11 days from day 13 to day 22 and measured on day 23; type: organism-based; details: in vivo, 264 h, time 11 day
[22] = tested on: Mus musculus; test: Antinociceptive activity in CD1 mouse at 10 to 40 mg/kg, po co-treated with 64 mg/kg, sc sigma1R agonist PRE-084 by paw pressure test; type: functional; details: dose 10-40 mg/kg
[23] = Mutagenicity in Salmonella typhimurium by Ames test; type: toxicity; details: salmonella enterica subsp. enterica serovar typhimurium

## CCN1CC2(CCN(CCc3cc(F)ccc3F)CC2)O[C@H](C)C1=O
[1]
  inhibition in vivo at 5 mg/kg: 56%
[2]
  inhibition at 1 µM: < 50%
[3]
  inhibition at 1 µM: < 50%
[4]
  inhibition: 21%
[5]
  Papp: 34.9 ×10⁻⁶ cm/s
[6]
  Activity: Non-Toxic
[7]
  logD: 2
[8]
  inhibition at 10 µM: < 50%
[9]
  Emax: 64%
[10]
  inhibition at 1 µM: < 50%
[11]
  IC50: > 10 µM
[12]
  inhibition at 1 µM: < 50%
[13]
  Activity: Non-Toxic
[14]
  logD: 2.7
[15]
  solubility thermodynamic: 45.1 mg/mL (≈ 128 mM)
[16]
  Activity: Non-Toxic
[17]
  microsomal CLint: 2.4 µL/min/mg
[18]
  Activity: Non-Toxic
[19]
  inhibition at 1 µM: < 50%
[20]
  solubility thermodynamic: 17.7 mg/mL (≈ 50.2 mM)
[21]
  Activity: Non-Toxic
[22]
  Emax: 40%
[23]
  Activity: Non-Toxic
